Changes are numbered by the printed parent chain. Like-named read-outs stand apart in the source and are kept apart here.
Legend:
human M1 = target: T1, human M1 (Homo sapiens, UniProt P11229); test: M1 PAM assay (FLIPR intracellular calcium), human M1; type: cell-based
T1 construct: expressed in transfected cells; host or cells: CHO cells
T1 sequence (P11229 1-460): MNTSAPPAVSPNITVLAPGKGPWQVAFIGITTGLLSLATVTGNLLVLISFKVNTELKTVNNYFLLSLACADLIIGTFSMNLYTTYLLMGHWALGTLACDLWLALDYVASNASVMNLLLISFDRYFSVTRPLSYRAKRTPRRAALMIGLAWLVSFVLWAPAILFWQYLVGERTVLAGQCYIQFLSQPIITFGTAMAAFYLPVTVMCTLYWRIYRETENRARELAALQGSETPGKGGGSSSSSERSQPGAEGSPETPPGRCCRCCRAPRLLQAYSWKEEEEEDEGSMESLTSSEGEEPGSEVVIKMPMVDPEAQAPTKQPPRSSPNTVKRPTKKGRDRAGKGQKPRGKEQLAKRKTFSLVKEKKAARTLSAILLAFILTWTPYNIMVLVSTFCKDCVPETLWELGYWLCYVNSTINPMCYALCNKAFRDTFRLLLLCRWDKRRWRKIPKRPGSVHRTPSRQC
Summary of the method: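 CHO cells expressing M1, Fluo-4AM-loaded, in HEPES/probenecid HBSS pH 7.4, 1% DMSO final. Compounds pre-incubated 2 min for agonist activity versus 30 nM acetylcholine control. For PAM activity, acetylcholine EC20 added after the 2 min pre-incubation, then 2 min more before FLIPR intracellular Ca2+ read.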

ratM1 = target: T2, ratM1 (Rattus norvegicus, UniProt P08482); test: M1 PAM assay (FLIPR intracellular calcium), rat M1; type: cell-based
T2 construct: expressed in transfected cells; host or cells: CHO cells (stated generally for the assay, not specifically for rat M1)
T2 sequence (P08482 1-460): T1 sequence (P11229 1-460) with A5V, T254S, P309S, R320K, A337G, I413V

[1] = CHO human M1 cells, FLIPR Ca2+, with EC20 of acetylcholine, first value of the cell, read-out: hM1 EC50
[2] = rat M1, FLIPR Ca2+, second value of the cell, read-out: ratM1 EC50

Structure (SMILES)	EC50 (human M1; [1]) [µM]	EC50 (ratM1; [2]) [µM]	EC50 (human M1) [µM]	EC50 (ratM1) [µM]
Cn1cc(-c2ccc(Cn3cc(C(=O)N[C@H]4CCCC(F)(F)[C@@H]4O)c4c(F)cccc43)c(F)c2)cn1 [Example 103, N-((1S,2R)-3,3-difluoro-2-hydroxycyclohexyl)-4-fluoro-1-(2-fluoro-4-(1-methyl-1H-pyrazol-4-yl)benzyl)-1H-indole-3-carboxamide]	0.007	0.032		
Cn1cc(-c2ccc(Cn3cc(C(=O)N[C@H]4CCCC[C@@H]4O)c4c(F)ccc(C5CC5)c43)cc2)cn1 [Example 105, 7-cyclopropyl-4-fluoro-N-((1S,2S)-2-hydroxycyclohexyl)-1-(4-(1-methyl-1H-pyrazol-4-yl)benzyl)-1H-indole-3-carboxamide]	0.288	0.627		
Cn1cc(-c2ccc(Cn3cc(C(=O)N[C@H]4CCOC[C@@H]4O)c4c(F)ccc(C5CC5)c43)cc2)cn1 [Example 106, 7-cyclopropyl-4-fluoro-N-((3R,4S)-3-hydroxytetrahydro-2H-pyran-4-yl)-1-(4-(1-methyl-1H-pyrazol-4-yl)benzyl)-1H-indole-3-carboxamide]	0.189	0.187		
Cn1cc(-c2ccc(Cn3cc(C(=O)N[C@H]4CCOC[C@@H]4O)c4c(F)ccc(C5CC5)c43)c(F)c2)cn1 [Example 107, 7-cyclopropyl-4-fluoro-1-(2-fluoro-4-(1-methyl-1H-pyrazol-4-yl)benzyl)-N-((3R,4S)-3-hydroxytetrahydro-2H-pyran-4-yl)-1H-indole-3-carboxamide]	0.482	0.767		
CCc1ccc(F)c2c(C(=O)NC3CCOCC3)cn(Cc3ccc(-c4cnn(C)c4)cc3)c12 [Example 108, 7-ethyl-4-fluoro-1-(4-(1-methyl-1H-pyrazol-4-yl)benzyl)-N-(tetrahydro-2H-pyran-4-yl)-1H-indole-3-carboxamide]	0.414	0.952		
CCc1ccc(F)c2c(C(=O)N[C@H]3CCOC[C@@H]3O)cn(Cc3ccc(-c4cnn(C)c4)cc3)c12 [Example 109, 7-ethyl-4-fluoro-N-((3R,4S)-3-hydroxytetrahydro-2H-pyran-4-yl)-1-(4-(1-methyl-1H-pyrazol-4-yl)benzyl)-1H-indole-3-carboxamide]	0.061	0.079		
CNC(=O)c1ccc(Cn2cc(C(=O)NC)c3c(F)cccc32)cc1 [Example 110, 4-fluoro-N-methyl-1-[[4-(methylcarbamoyl)phenyl]methyl]indole-3-carboxamide]	0.141	0.482		
CNC(=O)c1ccc(Cn2cc(C(=O)NC3CC3)c3c(F)cccc32)cc1 [Example 111, N-cyclopropyl-4-fluoro-1-[[4-(methylcarbamoyl)phenyl]methyl]indol-3-carboxamide]	0.127	0.408		
CNC(=O)c1ccc(Cn2cc(C(=O)NC3CCC3)c3c(F)cccc32)cc1 [Example 112, N-cyclobutyl-4-fluoro-1-[[4-(methylcarbamoyl)phenyl]methyl]indole-3-carboxamide]	0.072	0.168		
CNC(=O)c1ccc(Cn2cc(C(=O)NC3CCCC3)c3c(F)cccc32)cc1 [Example 113, N-cyclopentyl-4-fluoro-1-[[4-(methylcarbamoyl)phenyl]methyl]indole-3-carboxamide]	0.034	0.077		
CNC(=O)c1ccc(Cn2cc(C(=O)NC3CCCCC3)c3c(F)cccc32)cc1 [Example 114, N-cyclohexyl-4-fluoro-1-[[4-(methylcarbamoyl)phenyl]methyl]indole-3-carboxamide]	0.017	0.015		
CNC(=O)c1ccc(Cn2cc(C(=O)NC3CCCCCC3)c3c(F)cccc32)cc1 [Example 115, N-cycloheptyl-4-fluoro-1-[[4-(methylcarbamoyl)phenyl]methy]indole-3-carboxamide]	0.05	0.028		
CNC(=O)c1ccc(Cn2cc(C(=O)NCC3CC3)c3c(F)cccc32)cc1 [Example 116, N-(cyclopropylmethyl)-4-fluoro-1-[[4-(methylcarbamoyl)phenyl]methyl]indole-3-carboxamide]	0.074	0.32		
CNC(=O)c1ccc(Cn2cc(C(=O)NC3CCC(F)(F)CC3)c3c(F)cccc32)cc1 [Example 117, N-(4,4-difluorocyclohexyl)-4-fluoro-1-[[4-(methylcarbamoyl)phenyl]methyl]indole-3-carboxamide]	0.014	0.029		
CNC(=O)c1ccc(Cn2cc(C(=O)NC3CCCC(F)(F)C3)c3c(F)cccc32)cc1 (stereo not drawn) [Example 118, N-(3,3-difluorocyclohexyl)-4-fluoro-1-[[4-(methylcarbamoyl)phenyl]methyl]indole-3-carboxamide]	0.009	0.029		
CNC(=O)c1ccc(Cn2cc(C(=O)NC3CCOC(C)(C)C3)c3c(F)cccc32)cc1 (stereo not drawn) [Example 119, N-(2,2-dimethyloxan-4-yl)-4-fluoro-1-[[4-(methylcarbamoyl)phenyl]methyl]indole-3-carboxamide]	0.006	0.012		
CNC(=O)c1ccc(Cn2cc(C(=O)NC3CCCCC3(F)F)c3c(F)cccc32)cc1 (stereo not drawn) [Example 120, N-(2,2-difluorocyclohexyl)-4-fluoro-1-[[4-(methylcarbamoyl)phenyl]methyl]indole-3-carboxamide]	0.015	0.032		
CNC(=O)c1ccc(Cn2cc(C(=O)NC3CCCCC3F)c3c(F)cccc32)cc1 (stereo not drawn) [Example 121, 4-fluoro-N-(2-fluorocyclohexyl)-1-[[4-(methylcarbamoyl)phenyl]methyl]indole-3-carboxamide]	0.006	0.017		
CNC(=O)c1ccc(Cn2cc(C(=O)NC3CCCOC3)c3c(F)cccc32)cc1 (stereo not drawn) [Example 122, 4-fluoro-1-[[4-(methylcarbamoyl)phenyl]methyl]-N-(oxan-3-yl)indole-3-carboxamide]	0.062	0.154		
CNC(=O)c1ccc(Cn2cc(C(=O)NC3(C)CCOCC3)c3c(F)cccc32)cc1 [Example 123, 4-fluoro-1-[[4-(methylcarbamoyl)phenyl]methyl]-N-(4-methyloxan-4-yl)indole-3-carboxamide]	0.364	0.68		
CNC(=O)c1ccc(Cn2cc(C(=O)NC3CCSCC3)c3c(F)cccc32)cc1 [Example 124, 4-fluoro-1-[[4-(methylcarbamoyl)phenyl]methyl]-N-(thian-4-yl)indole-3-carboxamide]	0.011	0.024		
CNC(=O)c1ccc(Cn2cc(C(=O)NC3CCS(=O)(=O)CC3)c3c(F)cccc32)cc1 [Example 125, N-(1,1-dioxothian-4-yl)-4-fluoro-1-[[4-(methylcarbamoyl)phenyl]methyl]indole-3-carboxamide]	0.166	0.623		
CNC(=O)c1ccc(Cn2cc(C(=O)NC3CCOCC3C)c3c(F)cccc32)cc1 (stereo not drawn) [Example 126, 4-fluoro-1-[[4-(methylcarbamoyl)phenyl]methyl]-N-(3-methyloxan-4-yl)indole-3-carboxamide]	0.019	0.051		
CNC(=O)c1ccc(Cn2cc(C(=O)NC3CCOC(C)C3)c3c(F)cccc32)cc1 (stereo not drawn) [Example 127, 4-fluoro-1-[[4-(methylcarbamoyl)phenyl]methyl]-N-(2-methyloxan-4-yl)indole-3-carboxamide]	0.019	0.026		
CCc1ccc(F)c2c(C(=O)NC3CCOCC3)cn(Cc3ccc4c(cnn4C)c3)c12 [Example 128, 7-ethyl-4-fluoro-1-((1-methyl-1H-indazol-5-yl)methyl)-N-(tetrahydro-2H-pyran-4-yl)-1H-indole-3-carboxamide]			0.289	1.24
CNC(=O)c1ccc(Cn2cc(C(=O)NC3CCCCC3F)c3c(F)cccc32)cc1F (stereo not drawn) [Example 129, 4-fluoro-1-(3-fluoro-4-(methylcarbamoyl)benzyl)-N-(2-fluorocyclohexyl)-1H-indole-3-carboxamide]	0.027	0.066		
CNC(=O)c1ccc(Cn2cc(C(=O)NC3CCCC(F)(F)C3)c3c(F)cccc32)cc1F (stereo not drawn) [Example 130, N-(3,3-difluorocyclohexyl)-4-fluoro-1-(3-fluoro-4-(methylcarbamoyl)benzyl)-1H-indole-3-carboxamide]	0.034	0.058		
